# According to patent US11807644B2 (PMV Pharmaceuticals, Inc., priority 2020, dated 2023):
# Target: T1, recombinant His-tag Y220C p53 DBD protein (Homo sapiens, UniProt P04637, Y220C)
# T1 construct: recombinant His-tag Y220C p53 DBD protein (amino acids #˜94-312)
# Assay: In vitro DNA binding activity assay (TR-FRET): binding of His-tag Y220C p53 DBD to biotin-labeled consensus DNA
# Format: biochemical
# Conditions: SC150 = concentration to increase DNA binding by […], His-tag Y220C p53 DBD, biotin-labeled consensus DNA
row,Structure (SMILES),Y220C SC150 (μM)
1,"CN1CCC(Nc2cccc3c2cc(-c2nnc(CNc4ccc(S(C)(=O)=O)cc4)s2)n3CC(F)(F)F)CC1 [Compound 24B, 2-(5-{[(4-methanesulfonylphenyl)amino]methyl}-1,3,4-thiadiazol-2-yl)-N-(1-methylpiperidin-4-yl)-1-(2,2,2-trifluoroethyl)-1H-indol-4-amine]",** (** = 0.1 μM ≤ SC150 < 0.5 μM)
2,"CN1CC[C@H](Nc2cccc3c2cc(-c2nnc(CNC(=O)C4CC4)s2)n3CC(F)(F)F)[C@H](F)C1 [Compound 25B, N-{[5-(4-{[(3R,4S)-3-fluoro-1-methylpiperidin-4-yl]amino}-1-(2,2,2-trifluoroethyl)-1H-indol-2-yl)-1,3,4-thiadiazol-2-yl]methyl}cyclopropanecarboxamide]",** (** = 0.1 μM ≤ SC150 < 0.5 μM)
3,"CN1CC[C@H](Nc2cccc3c2cc(-c2nnc(CNC(=O)c4ccccc4)s2)n3CC(F)(F)F)[C@H](F)C1 [Compound 26B, N-{[5-(4-{[(3R,4S)-3-fluoro-1-methylpiperidin-4-yl]amino}-1-(2,2,2-trifluoroethyl)-1H-indol-2-yl)-1,3,4-thiadiazol-2-yl]methyl}benzamide]",** (** = 0.1 μM ≤ SC150 < 0.5 μM)
4,"CN1CCC(Nc2cccc3c2cc(-c2nnc(CNC(=O)C4(F)CC4)s2)n3CC(F)(F)F)CC1 [Compound 31B, 1-fluoro-N-[(5-{4-[(1-methylpiperidin-4-yl)amino]-1-(2,2,2-trifluoroethyl)-1H-indol-2-yl}-1,3,4-thiadiazol-2-yl)methyl]cyclopropane-1-carboxamide]",** (** = 0.1 μM ≤ SC150 < 0.5 μM)
5,"CN1CCC(Nc2cccc3c2cc(-c2nnc(CNC(=O)C4CC4)s2)n3CC(F)(F)F)CC1 [Compound 35B, N-[(5-{4-[(1-methylpiperidin-4-yl)amino]-1-(2,2,2-trifluoroethyl)-1H-indol-2-yl}-1,3,4-thiadiazol-2-yl)methyl]cyclopropanecarboxamide]",* (* = 0 μM ≤ SC150 < 0.1 μM)
6,"COC(=O)c1ccc(C(=O)NCc2nnc(-c3cc4c(NC5CCN(C)CC5)cccc4n3CC(F)(F)F)s2)cc1 [Compound 39B, methyl 4-{[(5-{4-[(1-methylpiperidin-4-yl)amino]-1-(2,2,2-trifluoroethyl)-1H-indol-2-yl}-1,3,4-thiadiazol-2-yl)methyl]carbamoyl}benzoate]",* (* = 0 μM ≤ SC150 < 0.1 μM)

# The next lines start with the values.
row,Y220C SC150 (μM),Structure (SMILES)
1,** (** = 0.1 μM ≤ SC150 < 0.5 μM),"CN1CCC(Nc2cccc3c2cc(-c2nnc(CNC(=O)c4ccccn4)s2)n3CC(F)(F)F)CC1 [Compound 41B, N-[(5-{4-[(1-methylpiperidin-4-yl)amino]-1-(2,2,2-trifluoroethyl)-1H-indol-2-yl}-1,3,4-thiadiazol-2-yl)methyl]pyridine-2-carboxamide]"
2,** (** = 0.1 μM ≤ SC150 < 0.5 μM),"CN1CCC(Nc2cccc3c2cc(-c2nnc(CNC(=O)c4cccnc4)s2)n3CC(F)(F)F)CC1 [Compound 42B, N-[(5-{4-[(1-methylpiperidin-4-yl)amino]-1-(2,2,2-trifluoroethyl)-1H-indol-2-yl}-1,3,4-thiadiazol-2-yl)methyl]pyridine-3-carboxamide]"
3,* (* = 0 μM ≤ SC150 < 0.1 μM),"CN1CCC(Nc2cccc3c2cc(-c2nnc(CNC(=O)c4ccc(CN5CCOCC5)cc4)s2)n3CC(F)(F)F)CC1 [Compound 45B, N-[(5-{4-[(1-methylpiperidin-4-yl)amino]-1-(2,2,2-trifluoroethyl)-1H-indol-2-yl}-1,3,4-thiadiazol-2-yl)methyl]-4-[(morpholin-4-yl)methyl]benzamide]"
4,* (* = 0 μM ≤ SC150 < 0.1 μM),"CN1CCC(Nc2cccc3c2cc(-c2nnc(CNC(=O)c4cccc(CN5CCOCC5)c4)s2)n3CC(F)(F)F)CC1 [Compound 46B, N-[(5-{4-[(1-methylpiperidin-4-yl)amino]-1-(2,2,2-trifluoroethyl)-1H-indol-2-yl}-1,3,4-thiadiazol-2-yl)methyl]-3-[(morpholin-4-yl)methyl]benzamide]"

# Same assay, conditions: concentration to increase DNA binding by […], incubated at either 27° C. or 29° C. for 60 min
row,Structure (SMILES),SC150 (μM)
1,"COC(=O)Nc1cccc(-c2cc3c(NC4CCS(=O)(=O)CC4)cccc3n2CC(F)(F)F)c1 [Compound 25A, methyl N-(3-{4-[(1,1-dioxo-1λ^6-thian-4-yl)amino]-1-(2,2,2-trifluoroethyl)-1H-indol-2-yl}phenyl)carbamate]",+++ (+++ = 5 μM ≤ SC150 < 10 μM)
2,"N#CC1(c2ccc(-c3cc4c(NC5CCS(=O)(=O)CC5)cccc4n3CC(F)(F)F)cc2)CC1 [Compound 26A, 1-(4-{4-[(1,1-dioxo-1λ^6-thian-4-yl)amino]-1-(2,2,2-trifluoroethyl)-1H-indol-2-yl}phenyl)cyclopropane-1-carbonitrile]",++ (++ = 2 μM ≤ SC150 < 5 μM)
3,"O=S1(=O)CCC(Nc2cccc3c2cc(-c2ccc(CO)cc2)n3CC(F)(F)F)CC1 [Compound 27A, 4-({2-[4-(hydroxymethyl)phenyl]-1-(2,2,2-trifluoroethyl)-1H-indol-4-yl}amino)-1λ^6-thiane-1,1-dione]",++ (++ = 2 μM ≤ SC150 < 5 μM)
4,"CS(=O)(=O)c1ccc(NC(=O)NCc2ccc(-c3cc4c(NC5CCS(=O)(=O)CC5)cccc4n3CC(F)(F)F)cc2)cc1 [Compound 28A, 1-[(4-{4-[(1,1-dioxo-1λ^6-thian-4-yl)amino]-1-(2,2,2-trifluoroethyl)-1H-indol-2-yl}phenyl)methyl]-3-(4-methanesulfonylphenyl)urea]",+ (+ = 0 μM ≤ SC150 < 2 μM)
5,"CS(=O)(=O)c1ccc(NCc2ccc(-c3cc4c(NC5CCS(=O)(=O)CC5)cccc4n3CC(F)(F)F)cc2)cn1 [Compound 29A, 4-{[2-(4-{[(6-methanesulfonylpyridin-3-yl)amino]methyl}phenyl)-1-(2,2,2-trifluoroethyl)-1H-indol-4-yl]amino}-1λ^6-thiane-1,1-dione]",+ (+ = 0 μM ≤ SC150 < 2 μM)
6,"CS(=O)(=O)c1ccc(NCc2ccc(-c3cc4c(NC5CCN(C6CCOCC6)CC5)cccc4n3CC(F)(F)F)cc2)cc1 [Compound 30A, 2-(4-{[(4-methanesulfonylphenyl)amino]methyl}phenyl)-N-[1-(oxan-4-yl)piperidin-4-yl]-1-(2,2,2-trifluoroethyl)-1H-indol-4-amine]",+ (+ = 0 μM ≤ SC150 < 2 μM)
7,"Cc1ccc(NCc2ccc(-c3cc4c(NC5CCN(C6CCOCC6)CC5)cccc4n3CC(F)(F)F)cc2)cn1 [Compound 31A, 2-(4-{[(6-methylpyridin-3-yl)amino]methyl}phenyl)-N-[1-(oxan-4-yl)piperidin-4-yl]-1-(2,2,2-trifluoroethyl)-1H-indol-4-amine]",+ (+ = 0 μM ≤ SC150 < 2 μM)
8,"FC(F)(F)Cn1c(-c2ccc(CNc3ccc(Cl)cc3)cc2)cc2c(NC3CCN(C4CCOCC4)CC3)cccc21 [Compound 32A, 2-(4-{[(4-chlorophenyl)amino]methyl}phenyl)-N-[1-(oxan-4-yl)piperidin-4-yl]-1-(2,2,2-trifluoroethyl)-1H-indol-4-amine]",++ (++ = 2 μM ≤ SC150 < 5 μM)
9,"COc1ccc(NCc2ccc(-c3cc4c(NC5CCN(C6CCOCC6)CC5)cccc4n3CC(F)(F)F)cc2)cc1 [Compound 33A, 2-(4-{[(4-methoxyphenyl)amino]methyl}phenyl)-N-[1-(oxan-4-yl)piperidin-4-yl]-1-(2,2,2-trifluoroethyl)-1H-indol-4-amine]",++ (++ = 2 μM ≤ SC150 < 5 μM)
10,"FC(F)(F)Cn1c(-c2ccc(CNc3cccc(Cl)c3)cc2)cc2c(NC3CCN(C4CCOCC4)CC3)cccc21 [Compound 34A, 2-(4-{[(3-chlorophenyl)amino]methyl}phenyl)-N-[1-(oxan-4-yl)piperidin-4-yl]-1-(2,2,2-trifluoroethyl)-1H-indol-4-amine]",++++ (++++ = 10 μM ≤ SC150 < 35 μM)
11,"Cc1ccc(NCc2ccc(-c3cc4cc(CNC5CCN(C)CC5)ccc4n3CC(F)(F)F)cc2)cn1 [Compound 35A, 6-methyl-N-{[4-(5-{[(1-methylpiperidin-4-yl)amino]methyl}-1-(2,2,2-trifluoroethyl)-1H-indol-2-yl)phenyl]methyl}pyridin-3-amine]",+++ (+++ = 5 μM ≤ SC150 < 10 μM)
12,"CN1CCC(NCc2ccc3c(c2)cc(-c2ccc(CNc4ccc(S(C)(=O)=O)cc4)cc2)n3CC(F)(F)F)CC1 [Compound 36A, N-{[2-(4-{[(4-methanesulfonylphenyl)amino]methyl}phenyl)-1-(2,2,2-trifluoroethyl)-1H-indol-5-yl]methyl}-1-methylpiperidin-4-amine]",++ (++ = 2 μM ≤ SC150 < 5 μM)
13,"CN1CCC(Nc2cccc3c2cc(-c2ccc(C(N)c4ccccc4)cc2)n3CC(F)(F)F)CC1 (stereo not drawn) [Compound 38A, 2-{4-[amino(phenyl)methyl]phenyl}-N-(1-methylpiperidin-4-yl)-1-(2,2,2-trifluoroethyl)-1H-indol-4-amine]",+++ (+++ = 5 μM ≤ SC150 < 10 μM)

# Next, values leading:
row,SC150 (μM),Structure (SMILES)
1,++++ (++++ = 10 μM ≤ SC150 < 35 μM),"CN1CCC(Nc2cccc3c2cc(-c2ccc(CNC4CCCC4)cc2)n3CC(F)(F)F)CC1 [Compound 40A, 2-{4-[(cyclopentylamino)methyl]phenyl}-N-(1-methylpiperidin-4-yl)-1-(2,2,2-trifluoroethyl)-1H-indol-4-amine]"
2,++ (++ = 2 μM ≤ SC150 < 5 μM),"CC(Nc1ccc(S(C)(=O)=O)cc1)c1ccc(-c2cc3c(NC4CCN(C)CC4)cccc3n2CC(F)(F)F)cc1 (stereo not drawn) [Compound 41A, 2-(4-{1-[(4-methanesulfonylphenyl)amino]ethyl}phenyl)-N-(1-methylpiperidin-4-yl)-1-(2,2,2-trifluoroethyl)-1H-indol-4-amine]"
3,+ (+ = 0 μM ≤ SC150 < 2 μM),"CN1CC[C@H](Nc2cccc3c2cc(-c2ccc(CNc4ccc(S(C)(=O)=O)cc4)cc2)n3CC(F)(F)F)[C@H](F)C1 [Compound 44A, N-[(3R,4S)-3-fluoro-1-methylpiperidin-4-yl]-2-(4-{[(4-methanesulfonylphenyl)amino]methyl}phenyl)-1-(2,2,2-trifluoroethyl)-1H-indol-4-amine]"
4,+++ (+++ = 5 μM ≤ SC150 < 10 μM),"COCC(O)CN1CCC(Nc2cccc3c2cc(-c2ccc4c(C)[nH]nc4c2)n3CC(F)(F)F)CC1 (stereo not drawn) [Compound 47A, 1-methoxy-3-(4-{[2-(3-methyl-2H-indazol-6-yl)-1-(2,2,2-trifluoroethyl)-1H-indol-4-yl]amino}piperidin-1-yl)propan-2-ol]"
